Biological target: STING (Homo sapiens, UniProt Q86WV6, G230A/H232R/R293Q/R71H)
Test: STING reporter assay: THP1-Dual KO-IFNAR2 cells stimulated with 2′3′cGAMP, luciferase reporter activity
Format: cell-based
Conditions: 15 μM 2′3′cGAMP, 24h, class symbols
Outline: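 THP1-Dual KO-IFNAR2 cells (2×10E6 cells/mL) treated with compounds at 0.0017-100 μM, then stimulated with 2′3′cGAMP (15 μM final) delivered by Lipofectamine 2000; 24 h at 37° C. Supernatant luciferase read by QUANTI-Luc Plus luminescence; EC50 from dose-response.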

Chain of STING (Q86WV6 whole entry R71H/G230A/H232R/R293Q): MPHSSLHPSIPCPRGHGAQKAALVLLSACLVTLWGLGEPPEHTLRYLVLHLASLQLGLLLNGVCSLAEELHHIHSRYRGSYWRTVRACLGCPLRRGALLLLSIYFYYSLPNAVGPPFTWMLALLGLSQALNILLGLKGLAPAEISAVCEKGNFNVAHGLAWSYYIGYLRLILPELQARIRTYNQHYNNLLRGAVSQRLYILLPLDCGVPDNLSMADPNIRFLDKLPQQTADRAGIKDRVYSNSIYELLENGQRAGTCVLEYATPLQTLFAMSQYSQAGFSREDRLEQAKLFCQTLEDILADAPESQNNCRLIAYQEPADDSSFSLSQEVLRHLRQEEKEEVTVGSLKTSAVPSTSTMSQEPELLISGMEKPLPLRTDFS

Row | SMILES | EC50 [µM]
1 | O=C(NCCOc1cccnc1)Nc1ccc2cc[nH]c2c1 [Compound 519] | 5 to 100
2 | CN(c1ccc2cc[nH]c2c1)c1ccc2ccc(C(F)(F)F)cc2n1 [Compound 605, N-(1H-indol-6-yl)-N-methyl-7-(trifluoromethyl)quinolin-2-amine] | 5 to 100
3 | FC(F)(F)c1nc(Nc2ccc3cc[nH]c3c2)ccc1Cl [Compound 405, N-(5-chloro-6-(trifluoromethyl)pyridin-2-yl)-1H-indol-6-amine] | 0.2 to 1
4 | N#Cc1cc(Nc2ccc3cc[nH]c3c2)cc(Nc2ccc3cc[nH]c3c2)n1 [Compound 582, 4,6-bis[(1H-indol-6-yl)amino]pyridine-2-carbonitrile] | 0.2 to 1
5 | CC(C)c1cccc(Nc2ccc3cc[nH]c3c2)n1 [Compound 406, N-(6-isopropylpyridin-2-yl)-1H-indol-6-amine] | 5 to 100
6 | O=C(Nc1ccc2[nH]ccc2c1)Nc1cc(C2CCC2)no1 [Compound 302] | 5 to 100
7 | N#Cc1c[nH]c2cc(NC(=O)Nc3ccc(C(F)(F)F)cc3)cc(F)c12 [Compound 528] | 1 to 5
8 | CC(C)(C)OC(=O)N1CCc2cnc(Nc3ccc4cc[nH]c4c3)nc2C1 [Compound 428, tert-butyl 2-((1H-indol-6-yl)amino)-5,6-dihydropyrido[3,4-d]pyrimidine-7(8H)-carboxylate] | 5 to 100
9 | Cc1ccc(Nc2ccc3cc[nH]c3c2)nc1C(F)(F)F [Compound 421, N-(5-methyl-6-(trifluoromethyl)pyridin-2-yl)-1H-indol-6-amine] | 1 to 5
10 | O=C(NCc1cc(Cl)cc(C(F)(F)F)c1)Nc1ccc2[nH]ccc2c1 [Compound 318] | 5 to 100

Next, values leading:

Row | EC50 [µM] | SMILES
11 | 5 to 100 | CN(C)C(=O)c1cc(NC(=O)Nc2ccc(C(F)(F)F)cc2)cc2[nH]ccc12 [Compound 547]
12 | 5 to 100 | CN(C)S(=O)(=O)c1ccc(NC(=O)Nc2ccc3cc[nH]c3c2)cc1 [Compound 202]
13 | 0.2 to 1 | O=C(Nc1cccc(S(F)(F)(F)(F)F)c1)Nc1ccc2cc[nH]c2c1 [Compound 233]
14 | 1 to 5 | CC(=O)n1ccc2ccc(NC(=O)Nc3ccc(C(F)(F)F)cc3)cc21 [Compound 257]
15 | 0.2 to 1 | O=C(NCCc1ccc(OC(F)(F)F)cc1)Nc1ccc2cc[nH]c2c1 [Compound 183]
16 | 0.2 to 1 | O=C(Nc1ccc(Cl)c(F)c1)Nc1ccc2cc[nH]c2c1 [Compound 226]
17 | 1 to 5 | O=C(Nc1cccc(S(=O)(=O)C(F)(F)F)c1)Nc1ccc2cc[nH]c2c1 [Compound 203]

Same assay, conditions: 15 μM 2′3′cGAMP, 24h, numeric bounds

Row | SMILES | EC50 [µM]
18 | COc1ccc(Nc2ccc3cc[nH]c3c2)nc1F [Compound 601, N-(6-fluoro-5-methoxypyridin-2-yl)-1H-indol-6-amine] | > 30
19 | O=C(NCCOc1cccc(Br)c1)Nc1ccc2[nH]ccc2c1 [Compound 295] | > 30
20 | Cc1cc(C)nc(NC(=O)Nc2ccc3[nH]ccc3c2)c1 [Compound 335] | > 30
21 | CC(N)c1ccnc(Nc2ccc3cc[nH]c3c2)c1 (stereo not shown) [Compound 430, N-(4-(1-aminoethyl)pyridin-2-yl)-1H-indol-6-amine] | > 30
22 | c1cnc2ccnc(Nc3ccc4cc[nH]c4c3)c2c1 [Compound 478, N-(1H-indol-6-yl)-1,6-naphthyridin-5-amine] | > 30

Continued, values first:

Row | EC50 [µM] | SMILES
23 | > 30 | CN(C)S(=O)(=O)c1ccc(NC(=O)Nc2ccc3[nH]ccc3c2)cc1 [Compound 292]
24 | > 30 | Cc1ccc(CNC(=O)Nc2ccc3cc[nH]c3c2)cc1 [Compound 192]
25 | > 30 | CNC(=O)c1c[nH]c2cc(NC(=O)Nc3ccc(C(F)(F)F)cc3)ccc12 [Compound 541]

— US20230092163A1, “COMPOUNDS AND COMPOSITIONS FOR TREATING CONDITIONS ASSOCIATED WITH STING ACTIVITY” (IFM Due, Inc., priority 2019, published 2023)
